Laboratory results published in patent US20100028447A1, “Intranasal, Buccal, And Sublingual Administration Of Metanicotine Analogs” (TARGACEPT, INC., priority 2007, published 2010).
“And” between values parts separate entries of the source, which are not always exact repeats. Identical values can stand only once. “Also recorded” adds a separate entry of the source. Like-named read-outs stand apart in the source and are kept apart here.

Columns and labels:
[1] = In situ brain perfusion, single time-point method; settings: for Kin relative to values reported for drugs that do not substantially penetrate the CNS: 50 μM
Description: Animals used in this study were Sprague-Dawley rats (approximate weight 250-300 grams), obtained from Hilltop Lab Animals, Scottdale, Pa. Upon arrival, the rats were assigned randomly to treatment groups and acclimated for at least 24 hours. The animals were housed two per cage and identified by cage labels. A single room was used for this study. The animals were supplied with water and a commercial rodent diet ad libitum. On the day of the experiment, each rat was anesthetized intraperitoneally with Ketamine HCl/Xylazine HCl solution prior to being implanted with a cannula into the left carotid artery. Branch arteries were […], and the cardiac supply was cut off prior to brain perfusion.
Perfusion was performed using the single time-point method. […] Following 30 seconds of perfusion, the pump was stopped, and the brain was removed from the skull immediately. The brain was cut longitudinally in […]. Each left cerebral hemisphere was placed into a chilled tube, frozen on dry ice, and stored frozen at −60° C. to −80° C. until analyzed. […] Test articles were perfused at concentrations of 50 μM. The outline of the experimental treatments and the target and measured concentrations of the test articles and control compounds in the perfusate are presented in Table 3.
The left brain hemisphere from each rat was thawed and weighed. Methanol (20% aqueous) was added to each left brain hemisphere at approximately 4 mL per 1 g of brain tissue, and the mixture was homogenized using sonication with a VirSonic Ultrasonic Cell Disruptor 100 (VirTis). The test articles and two reference compounds were analyzed in the resulting homogenate by using LC/MS/MS.
The unidirectional brain transfer constants Kin (mL/g/min) were determined for the test articles and the high permeability reference, antipyrine, using the following equation for the single-point perfusion assay: […]
where: Cbr/Cpf is the apparent brain distribution volume (mL/g of brain tissue); Cbr is the concentration of drug in the brain tissue (pmol of drug per g of brain tissue); Cpf is the drug concentration in the perfusion fluid (pmol/mL of perfusate); and t is the net perfusion time (minutes).
Graphic representation and statistical analyses of the data were performed using GraphPad Prism software.

[2] = Brain-to-plasma ratio after oral gavage or intranasal administration (Example 4); format: in vivo, Sprague-Dawley rats
Description: Eight treatment groups of nine rats each were used (see Study Design, Table 6). […] The animals were housed up to three per cage and identified by cage labels. A single room was used for this study. […] Food was withheld from the animals for a minimum of 12 hours before the study and during the study, and was returned at 4 hours post-dose. Water was supplied ad libitum during the study.
All dosing solutions were prepared in isotonic PBS (phosphate buffered saline) buffer at pH 7.4. […] For intranasal dosing, the animals were anesthetized with CO2 prior to dosing, and the solution was administered in a droplet from a pipette.
For each treatment group, brain and plasma samples were collected at 10, 30 and 60 minutes post-dose. Blood samples were placed in heparinized tubles and spun at 13,000 rpm for 5 minutes. The plasma was placed in polyethylene tubes and frozen (−60 to −80° C.). Brain samples were also placed in chilled tubes and frozen (−60 to −80° C.). Samples remained chilled during subsequent processing.
Brain samples were thawed and weighed. […] After homogenation, the volume of each sample was recorded and the samples were frozen at −80° C. until analysis.
Plastic tubes were used for all steps. Standards were prepared at concentrations of 1000, 500, 250, 100, 50, 10, 5 and 1 ng/mL by serial dilution. Quality control samples were also prepared at 500, 100, and 5 ng/mL. […] Brain standards and quality control samples were treated identically to the test compound samples.
(§1) Brain samples (200 μL) were loaded onto a 96 well plate and then transferred to 400 μL of pure acetonitrile (containing 10 ng/mL nicotine as an internal standard) in a Sirocco Protein Precipitation Plate (Waters Corporation). The resulting suspensions were mixed and then filtered into a clean 96-well collection plate using a vacuum. A 200 μL aliquot of the resulting filtrate was then transferred to plastic HPLC vials for analysis.
as §1, with “Plasma” for “Brain”, “(50” for “(200”, “150” for “400”, “80” for “200”
(§2) Brain samples (200 μL) were loaded onto a 96 well plate and then transferred to 400 μL of acetonitrile containing internal standard (100 ng/mL Pindolol) in a Sirocco Protein Precipitation Plate (Waters Corporation). The resulting suspensions were mixed and then filtered into a clean 96-well collection plate using a vacuum. The resulting filtrates were then evaporated to dryness under nitrogen at 37° C. The resulting residues were reconstituted with 200 μL of water. The samples were then mixed, centrifuged, and transferred (100 μL) to plastic HPLC vials for analysis.
as §2, with “(50” for “(200”, “150” for “400”, “100” for “200”

[3] = Sprague-Dawley, rat, in vivo, 30 s
[4] = Table 5 Treatment 1: Compound A perfused with references, Average ± STD
[5] = Table 5 Treatment 1: Compound A perfused with references, Rat 1
[6] = Table 5 Treatment 1: Compound A perfused with references, Rat 2
[7] = Table 5 Treatment 1: Compound A perfused with references, Rat 3
[8] = Table 5 Treatment 2: Compound A perfused with references + CYP2D6 inhibitor Quinidine, Average ± STD
[9] = Table 5 Treatment 2: Compound A perfused with references + CYP2D6 inhibitor Quinidine, Rat 1
[10] = Table 5 Treatment 2: Compound A perfused with references + CYP2D6 inhibitor Quinidine, Rat 2
[11] = Table 5 Treatment 2: Compound A perfused with references + CYP2D6 inhibitor Quinidine, Rat 3
[12] = Sprague-Dawley, rat, in vivo, 10 mg/kg, Brain-to-Plasma Ratio
[13] = Sprague-Dawley, rat, in vivo, 10 mg/kg, Mean Ratio (brain-to-plasma)
[14] = Sprague-Dawley, rat, in vivo, intranasal, 1 mg/kg, Average brain-to-plasma ratio
[15] = Sprague-Dawley, rat, in vivo, po, 5 mg/kg, Average brain-to-plasma ratio
[16] = Table 4 Treatment 2: Compound B perfused with references + MAO inhibitor Pargyline, Rat 1
[17] = Table 4 Treatment 2: Compound B perfused with references + MAO inhibitor Pargyline, Rat 2
[18] = Table 4 Treatment 2: Compound B perfused with references + MAO inhibitor Pargyline, Rat 3

## CN[C@@H](C)C/C=C/c1cncc(OC)c1 [Compound A, (2S)-(4E)-N-methyl-5-(3-(5-methoxypyridin)yl)-4-penten-2-amine]
[1]; N=3
  Brain penetration (brain concentration, Kin) in the absence or presence of the CYP2D6 inhibitor Quinidine: no significant difference; also recorded: did not affect
[1]; [3]
  Kin relative to values reported for drugs that do not substantially penetrate the CNS: more than 100 times
[1]; [4]
  Brain Concentration (corrected for drug retained in vascular volume): 5504.5 ± 961.7 pmol/g
  Kin: 0.198+ ± 0.035 mL/g/min
[1]; [5]
  Brain Concentration (corrected for drug retained in vascular volume): 6558.8 pmol/g
  Kin: 0.236 mL/g/min
[1]; [6]
  Brain Concentration (corrected for drug retained in vascular volume): 5279.1 pmol/g
  Kin: 0.190 mL/g/min
[1]; [7]
  Brain Concentration (corrected for drug retained in vascular volume): 4675.5 pmol/g
  Kin: 0.168 mL/g/min
[1]; [8]
  Brain Concentration (corrected for drug retained in vascular volume): 5803.0 ± 278.8 pmol/g
  Kin: 0.212 ± 0.010 mL/g/min
[1]; [9]
  Brain Concentration (corrected for drug retained in vascular volume): 5574.4 pmol/g
  Kin: 0.203 mL/g/min
[1]; [10]
  Brain Concentration (corrected for drug retained in vascular volume): 6113.5 pmol/g
  Kin: 0.223 mL/g/min
[1]; [11]
  Brain Concentration (corrected for drug retained in vascular volume): 5721.1 pmol/g
  Kin: 0.209 mL/g/min
[1]; rat, in vivo
  Average Kin of Compound A (absence of Quinidine) compared with Compound B (absence of Pargyline): higher
  Potential to penetrate the brain: good potential
[2]; Group 1, OG, 10 mg/kg, 30 min, 10 mg/kg
  Plasma Conc.: 216 ng/mL and 278 ng/mL
[2]; Group 1, OG, 10 mg/kg, 60 min, 10 mg/kg
  Plasma Conc.: 239 ng/mL and 234 ng/mL
[2]; Group 3, OG, 10 mg/kg, 10 min, 10 mg/kg
  Plasma Conc.: 327 ng/mL and 249 ng/mL
[2]; [12]
  Kp at 0.5 h: 0.044
  Kp at 1 h: 0.038
[2]; Sprague-Dawley, rat, in vivo, 10 mg/kg, Group 1, OG, 10 mg/kg, 30 min, read-out: Brain Conc.
  concentration at 30 min: 2.04 ng/mL and 9.6 ng/g
[2]; Sprague-Dawley, rat, in vivo, 10 mg/kg, Group 1, OG, 10 mg/kg, 30 min, read-out: Plasma Conc.
  concentration at 30 min: 174 ng/mL
[2]; Sprague-Dawley, rat, in vivo, 10 mg/kg, Group 1, OG, 10 mg/kg, 60 min, read-out: Brain Conc.
  concentration at 60 min: 1.26 ng/mL and 6.08 ng/g
[2]; Sprague-Dawley, rat, in vivo, 10 mg/kg, Group 1, OG, 10 mg/kg, 60 min, read-out: Plasma Conc.
  concentration at 60 min: 158 ng/mL
[2]; Sprague-Dawley, rat, in vivo, 10 mg/kg, Group 2, OG, 10 mg/kg, 60 min, read-out: Brain Conc.
  concentration at 60 min: 2.81 ng/mL and 13.9 ng/g
[2]; Sprague-Dawley, rat, in vivo, 10 mg/kg, Group 3, OG, 10 mg/kg, 10 min, read-out: Plasma Conc.
  concentration at 10 min: 313 ng/mL
[2]; [13]
  Kp at 0.5 h: 0.042
  Kp at 1 h: 0.032
  Kp at […]: 0.039
[2]; Sprague-Dawley, rat, in vivo, intranasal, 0.1 mg/kg, Brain-to-plasma ratio
  Kp at 0.5 h: 5.52
[2]; Sprague-Dawley, rat, in vivo, intranasal, 0.1 mg/kg, Brain-to-plasma ratio (average value)
  Kp at […]: 2.21
[2]; [14]
  Kp at 0.5 h: 4.28
  Kp at 1 h: 6.4
  Kp at […]: 1.58
[2]; [15]
  Kp at 0.5 h: 2.37
  Kp at 1 h: 3.38
  Kp at […]: 1.75
[2]; by both intranasal and oral administration
  Exposures in plasma and brain, Compound A compared with Compound B: much greater
[2]; rat, in vivo
  Brain-to-plasma ratios, intranasal as opposed to oral gavage administration: generally greater

## CNCC/C=C/c1cccnc1 [Compound B, N-methyl-(4-pyridin-3-yl-but-3-enyl)-amine]
[1]; [3]
  Brain concentration and Kin in the presence of the MAO inhibitor Pargyline compared to alone: ^Significantly higher than the corresponding values of Compound B in the absence of enzymatic inhibitor (p < 0.05, two-tailed t-test).
  Kin relative to values reported for drugs that do not substantially penetrate the CNS: more than 100 times
[1]; Table 4 Treatment 1: Compound B perfused with references, Average ± STD
  Brain Concentration (corrected for drug retained in vascular volume): 2681.0 ± 513.0 pmol/g
[1]; Table 4 Treatment 1: Compound B perfused with references, Rat 1
  Brain Concentration (corrected for drug retained in vascular volume): 2725.9 pmol/g
[1]; Table 4 Treatment 1: Compound B perfused with references, Rat 2
  Brain Concentration (corrected for drug retained in vascular volume): 3170.1 pmol/g
[1]; Table 4 Treatment 1: Compound B perfused with references, Rat 3
  Brain Concentration (corrected for drug retained in vascular volume): 2147.0 pmol/g
[1]; Table 4 Treatment 2: Compound B perfused with references + MAO inhibitor Pargyline, Average ± STD
  Brain Concentration (corrected for drug retained in vascular volume): 3652.8^ ± 293.1 pmol/g
[1]; [16]
  Brain Concentration (corrected for drug retained in vascular volume): 3358.2 pmol/g
  Kin: 0.110 mL/g/min
[1]; [17]
  Brain Concentration (corrected for drug retained in vascular volume): 3655.8 pmol/g
  Kin: 0.120 mL/g/min
[1]; [18]
  Brain Concentration (corrected for drug retained in vascular volume): 3944.4 pmol/g
  Kin: 0.129 mL/g/min
[1]; rat, in vivo
  Brain concentration and Kin in the presence of the MAO inhibitor Pargyline compared to alone: significantly increased
  Potential to penetrate the brain: good potential
[2]; Sprague-Dawley, rat, in vivo, inhaled or intranasal, 1 mg/kg, intranasal 1 mg/kg with pargyline, 10 minute time point, two animals, read-out: Brain-to-plasma ratio (average value)
  Kp at […]: 0.89
[2]; Sprague-Dawley, rat, in vivo, inhaled or intranasal, 1 mg/kg, intranasal 1 mg/kg with pargyline, 30 minute time point, one animal, read-out: Brain-to-plasma ratio
  Kp at 0.5 h: 0.21
[2]; Sprague-Dawley, rat, in vivo, inhaled or intranasal, 1 mg/kg, intranasal 1 mg/kg without pargyline, 10 minute time point, two animals, read-out: Brain-to-plasma ratio (average value)
  Kp at […]: 1.09
[2]; Sprague-Dawley, rat, in vivo, po, 10 mg/kg, oral gavage administration, two animals, both at the minute time point
  Kp: 0.22
